In article PMC6656724 (Communications Biology, 2019):
“And” between values parts separate entries of the source, which are not always exact repeats. Equal values may be shown once. Read-outs that look alike come from different tables or passages of the source.

Experiments:
[1] = Rat brain penetration study; format: in vivo, male Han Wistar rats; settings: 1b 5 mg/kg i.v.; for In blood, prodrug 1b / In brain, prodrug 1b / Unbound brain, prodrug 1b / concentration at 5 min / concentration at 15 min / concentration at 30 min / concentration at 60 min: single rats; for In brain, prodrug 1b / Unbound brain, prodrug 1b: listed as prodrug 1b; for concentration at 5 min / concentration at 15 min / concentration at 30 min / concentration at 60 min: intravenous, 5 mg free base/kg
Procedure: Prodrug 1b was dosed as a bolus solution intravenously at 5 mg free base/kg (dose volume: 1 mL/kg; dose vehicle: 10% DMSO; 60% PEG400; 30% MilliQ H2O) to male Han Wistar rats (n = 12). At 5, 15, 30 and 60 min following intravenous bolus injection of prodrug 1b, […] (n = 3/timepoint) were placed under terminal anaesthesia with isofluorane. A blood sample was taken by cardiac puncture, the […] decapitated and the brain removed. Brain weight was noted and each brain homogenised with two volumes of methanol:water (1:1; 2 mL/g brain). Each blood sample was diluted with distilled water (1:2). Diluted blood and the brain homogenates were then stored frozen until preparation and analysis by UPLC-MS/MS, monitoring for prodrug 1b and production of inhibitor 1. For each rat at each timepoint for 1, the concentration in brain (ng/g) was divided by the concentration in blood (ng/mL) to give a brain:blood ratio. The mean value obtained was quoted.
A rapid and sensitive ultra-performance chromatography/tandem mass spectrometry (UPLC-MS/MS) method was developed and validated for the determination of inhibitor 1 and prodrug 1b (rat only). Chromatographic analysis was conducted on a Waters Acquity™ UPLC system. Chromatographic separation was performed with an Acquity™ UPLC BEH C18 column (50 × 2.1 mm, 1.7 µm, 130Å; Waters Corp.) maintained at 40 °C in a column oven. The mobile phase consisted of water with 0.01% formic acid and ACN with 0.01 % formic acid and it was delivered at a flow rate of 0.6 mL/min under gradient eluent conditions within an analysis cycle time of 3 min. The mass detection was conducted on a Waters Xevo™ TQs mass spectrometer equipped with a ScanWave™ technology. Quantitation of the analyte was performed in electrospray positive ionisation mode (ESI^+) using multiple reaction monitoring. The optimised fragmentation transition was m/z = 270.17 → 196.19 (mouse) or m/z = 270.17 → 223.76 (rat) for inhibitor 1 and m/z = 297.83 → 195.74 for prodrug 1b (rat).
Sample extraction for blood and brain homogenate was by protein precipitation (1:3 or 1:6) using ACN containing suitable internal standard. Extracts were vortexed followed by centrifugation (2800 rpm for 10 min). An aliquot of each supernatant was then diluted two-fold in distilled water ready for analysis by UPLC-MS/MS.
The weighted 1/x^2 calibration line was linear in the dynamic range of 1–5000 ng/mL for inhibitor 1 and 1–1000 ng/mL for prodrug 1b with a correlation coefficient (r^2) > 0.99 (inhibitor 1) or 0.98 (prodrug 1b). The quality control samples (QC) were prepared by using the same spiking scheme as the calibration samples and up to four different target concentration brain levels: 2 ng/mL (LQC), 40 ng/mL (MQC), 100 ng/mL (HQC) and 2000 ng/mL. Data collection, peak integration and calculations were performed using MassLynx software, version 2.1.

[2] = tested on: HTT93Q flies (Drosophila melanogaster model of HD); test: Pseudopupil assay in Drosophila model of Huntington's disease; format: in vivo
Text: To test the therapeutic efficacy of 1, we next employed a widely-used Drosophila melanogaster model of the inherited neurodegenerative disorder Huntington’s disease (HD)[30], which features pan-neuronal expression of a mutant huntingtin exon 1 fragment (HTT93Q). We have previously shown that several KMO inhibitors, including UPF 648 and Ro 61-8048, are neuroprotective in this Drosophila model. We thus tested the ability of 1 to ameliorate loss of photoreceptor neurons in the fly eye (rhabdomeres) using the pseudopupil assay. […] Although the efficacy of 1 may not be solely due to KMO inhibition in the fly, we have previously observed similar levels of neuroprotection with other KMO inhibitors.
Flies were kept on standard maize food at 25 °C with a 12:12 light/dark cycle. HTT93Q exon 1 expressing flies were generated by crossing female virgins carrying the UASHTT93Qexon1 transgene[30] (a gift of Larry Marsh and Leslie Thompson, University of California, Irvine) to males of elavGAL4 [c155] driver line, obtained from the Bloomington Drosophila Stock Center. For the drug feeding experiments, inhibitor 1 was dissolved in dimethylsulfoxide (DMSO) and added to maize media at the experimental concentrations. […] At day 7, rhabdomeres were scored as previously described. […] Rhabdomeres were examined using a Nikon Optiphot-2 light microscope, with ~ 80 ommatidia scored per fly.

[3] = Elimination in urine after intravenous administration; format: in vivo, female C57BL/6 mouse; settings: mouse, 1 mg free base/kg i.v.
Procedure: Supplementary Table 8. Elimination of inhibitor 1 in urine following single
intravenous administration at 1 mg free base/kg to a female C57BL/6 mouse.
Time Absolute amount of drug Amount of drug in urine

CCOC(=O)CN1C(=O)COc2cc(C)c(Cl)c(C)c21 [1b]
In blood, prodrug 1b ([1]; 5 min): ≤ 3 ng/mL
In brain, prodrug 1b ([1]; 5 min): 2623 ng/g and 2264 ng/g
Unbound brain, prodrug 1b ([1]; 5 min): 42 ng/g and 36 ng/g
In blood, prodrug 1b ([1]; 15 min): ≤ 3 ng/mL
In brain, prodrug 1b ([1]; 15 min): 715 ng/g and 791 ng/g
Unbound brain, prodrug 1b ([1]; 15 min): 11 ng/g and 13 ng/g
In blood, prodrug 1b ([1]; 30 min): ≤ 3 ng/mL
In brain, prodrug 1b ([1]; 30 min): 203 ng/g
Unbound brain, prodrug 1b ([1]; 30 min): 3 ng/g
In blood, prodrug 1b ([1]; 60 min): ≤ 3 ng/mL
concentration at 5 min ([1]; male, Han Wistar, brain (unbound), 5 min, read-out: Unbound brain, prodrug 1b): 38 ng/g
concentration at 15 min ([1]; male, Han Wistar, brain (unbound), 15 min, read-out: Unbound brain, prodrug 1b): 13 ng/g
concentration at 30 min ([1]; male, Han Wistar, brain (unbound), 30 min, read-out: Unbound brain, prodrug 1b): 4 ng/g
concentration at 5 min ([1]; male, Han Wistar, brain, 5 min, read-out: In brain, prodrug 1b): 2350 ng/g
concentration at 15 min ([1]; male, Han Wistar, brain, 15 min, read-out: In brain, prodrug 1b): 829 ng/g
concentration at 30 min ([1]; male, Han Wistar, brain, 30 min, read-out: In brain, prodrug 1b): 240 ng/g
concentration at 60 min ([1]; male, Han Wistar, brain, 60 min, read-out: In brain, prodrug 1b): 62 ng/g
concentration at 60 min ([1]; male, Han Wistar, brain, 60 min, read-out: Unbound brain, prodrug 1b): 1 ng/g
Tmax ([1]; male, Han Wistar, brain, iv, read-out: Time of maximal concentration of 1b in the brain (converted)): 5 min
concentration at 5 min ([1]; male, Han Wistar, whole blood, 5 min, read-out: In blood, prodrug 1b): ≤ 3 ng/mL
concentration at 15 min ([1]; male, Han Wistar, whole blood, 15 min, read-out: In blood, prodrug 1b): ≤ 3 ng/mL
concentration at 30 min ([1]; male, Han Wistar, whole blood, 30 min, read-out: In blood, prodrug 1b): ≤ 3 ng/mL
concentration at 60 min ([1]; male, Han Wistar, whole blood, 60 min, read-out: In blood, prodrug 1b): ≤ 3 ng/mL

Cc1cc2c(c(C)c1Cl)N(CC(=O)O)C(=O)CO2 [compound 1, (6-chloro-5,7-dimethyl-3-oxo-2,3-dihydro-4H-1,4-benzoxazin-4-yl) acetic acid]
Neurodegeneration prevented ([2]; HD flies, 100 μM, 7 days): ~ 57%
Reduction in neuron loss (rhabdomeres) ([2]; HTT93Q flies, 10 μM or 100 μM for 7 days, vs untreated or DMSO): significant dose-dependent reduction
Absolute amount of drug recovered in urine ([3]; 0 - 8 h): 8.67 µg
Amount of drug in urine recovered ([3]; 0 - 8 h): 30.3 % Dose
Absolute amount of drug recovered in urine ([3]; 8 - 24 h): 0.15 µg
Amount of drug in urine recovered ([3]; 8 - 24 h): 0.5 % Dose
